Here are results for 17 molecules from US12187816B2, “Macrocyclic compounds and methods of use thereof” (Genentech, Inc., priority 2020, dated 2025).

Starred links: 1 amine or outer side, 2 acyl side, 3 side chain; linkers in the order of their positions; H or OH if unused. Positions of bridges follow the written chain, without caps; N, C: chain ends. Non-standard residues stand in square brackets, D forms with d. Residues, ends and D or L forms follow the SMILES beside them. *: point of attachment. JQ1acid = Cc1sc2c(c1C)C(c1ccc(Cl)cc1)=N[C@@H](CC(=O)*)c1nnc(C)n1-2; dPhg(4-(4-Me-thiazol-5-yl)) = Cc1ncsc1-c1ccc([C@@H](N)C(=O)O)cc1; Phg(4-(4-Me-thiazol-5-yl)) = Cc1ncsc1-c1ccc([C@H](N)C(=O)O)cc1; dDap(Me) = CN(C[C@@H](N[*:1])C(=O)[*:2])[*:3]; dBip = N[C@H](Cc1ccc(-c2ccccc2)cc1)C(=O)O; cisHyp = O=C(O)[C@@H]1C[C@H](O)CN1; Hyp = O=C(O)[C@@H]1C[C@@H](O)CN1; d(β3hK) = NCCCC[C@@H](N)CC(=O)O; d4Pal = N[C@H](Cc1ccncc1)C(=O)O; Tle = CC(C)(C)[C@H](N)C(=O)O; dDap = NC[C@@H](N)C(=O)O; PEG1 = NCCOCCC(=O)O; Ahx = NCCCCCC(=O)O; AEA = NCCOCC(=O)O

In the test the target is T1, BRD4 (Homo sapiens, UniProt O60885).
T1 construct: Mean 488 intensity of BRD4 quantitated in nuclear region; endogenous in cells; host or cells: EoL-1 eosinophilic leukemia cells
Put plainly: BRD4 degradation assay in EOL1 cells (immunofluorescence imaging). The test is classed as cell-based. The following applies: EoL-1 eosinophilic leukemia cells, 4 hours treatment, nuclear BRD4 immunofluorescence. As for the experimental part: BRD4 Degradation Assay in EOL1 Cells
EoL-1 eosinophilic leukemia cells were seeded on day 1 at a density of 45,000 cells per well in Corning PureCoat Amine Microplates, (Corning #354719) in 45 μL/well of assay media (RPMI, 10% FBS, containing L-glutamine). After cells attached to cell plate, compounds were serially diluted ⅓ in dimethylsulfoxide (DMSO) to create 20-point dilutions across a 384 well v-bottom polypropylene microplate (Greiner #781091). 2 μL of each sample from the serial dilution was transferred to 98 μL of assay media as an intermediate dilution. 5 μL of each well of the intermediate dilution was added to 45 μL of cell plate. Columns 1, 2, 23 and 24 were treated with only 0.2% final concentration of DMSO for data normalization as “neutral controls”. After compound treatment, cell plates were stored in a 37° C. incubator for 4 hours. After 4 hours cells were fixed in 3.7% w/v final concentration of paraformaldehyde by addition of 15 μL of 16% w/v paraformaldehyde (Electron Microscopy Sciences #15710-S) directly to the 50 μL media and compound in the cell plate. Cell plate was incubated at RT for 20 minutes. Well contents were aspirated and washed with 100 μL/well PBS 3 times. 50 ul/well of phosphate Buffered Saline (PBS) (pH 7.5) containing 0.5% w/v bovine serum albumen, 0.5% w/v Triton X-100 (Block/Permeabilization Buffer) was added to each well. Samples were incubated for 20 minutes. Well contents were aspirated and washed 3 times with 100 μL/well of PBS. PBS was aspirated from the well and 50 μL per well of EoL-1 Block Buffer (PBS containing 10% Normal Goat Serum (AbCam #ab7481)) was added to each well. Plates were incubated at room temperature for 30 minutes. Block buffer was decanted from the wells. Immunofluorescence staining of BRD4 was carried out by diluting mAB Anti-BRD4 [EPR5150] antibody (Abcam 128874) 1:500 into Antibody Dilution Buffer (PBS, 2% Normal Goat Serum). 25 μL per well of BRD4 antibody diluted in buffer was added and incubated overnight at 4° C.
On day-2 samples were washed 3 times with 100 μL/well of PBS. 25 μL/well of secondary antibody solution (Goat Anti-Rabbit IgG, DyLight 488 Conjugated Highly Cross-adsorbed Thermo Fisher #35553) and Hoechst 33342 1 μg/ml diluted in Antibody Dilution Buffer) were dispensed into each well. Hoechst 33342 only was added to bottom 3 columns for data normalization as “inhibitor controls”. Samples were incubated for 2 hours at room temperature. Samples were washed 3 times with 100 μL PBS. Quantitative fluorescence imaging of BRD4 was carried out using an Opera Phenix High-Content Screening System. Fluorescent images of the samples were captured using 488 nm and 405 nm channels. Hoechst channel was used to identify nuclear region. Mean 488 intensity of BRD4 quantitated in nuclear region. Data analysis was carried out using Genedata Screener, with DMSO and no primary antibody control treated samples being used to define the 0% and 100% changes in BRD4. The dose-response log(inhibitor) vs. response used to define the inflexion point of curve (DC50) and the plateau of the maximal effect.
The individual topological polar surface area (TPSA) and cLogP values were calculated using Chemdraw v. 15.1 (PerkinElmer). Half life of the ternary VHL/BD1 and VHL/BD2 complexes, DC50 of BRD4 in EOL1 cells, topological polar surface area of a molecule (TPSA) and c log P (lipophilicity) for compounds described herein are provided in Table 3.
Take `Cc1ncsc1-c1ccc([C@H]2NC(=O)[C@@H]3C[C@H](O)CN3C(=O)[C@H](C(C)(C)C)NC(=O)CSC[C@H](C(N)=O)NC(=O)[C@@H](CNC(=O)C[C@@H]3N=C(c4ccc(Cl)cc4)c4c(sc(C)c4C)-n4c(C)nnc43)NC(=O)CNC2=O)cc1` [Compound 27] ({CH2CO}-[Tle][cisHyp][dPhg(4-(4-Me-thiazol-5-yl))]G[dDap](JQ1acid)[dC]-NH2; thioether N-6): the half-maximal degradation concentration (DC50) (as a rule, the concentration giving 50% degradation) was over 20000 nM.

`Cc1ncsc1-c1ccc([C@H]2NC(=O)[C@@H]3C[C@@H](O)CN3C(=O)[C@H](C(C)(C)C)NC(=O)CSC[C@@H](C(N)=O)NC(=O)[C@@H](CNC(=O)C[C@@H]3N=C(c4ccc(Cl)cc4)c4c(sc(C)c4C)-n4c(C)nnc43)NC(=O)CNC2=O)cc1` [Compound 28] ({CH2CO}-[Tle][Hyp][dPhg(4-(4-Me-thiazol-5-yl))]G[dDap](JQ1acid)C-NH2; thioether N-6) returned a DC50 of over 20000 nM. The molecule `Cc1ncsc1-c1ccc([C@H]2NC(=O)[C@@H]3C[C@@H](O)CN3C(=O)[C@H](C(C)(C)C)NC(=O)CSC[C@H](C(N)=O)NC(=O)[C@@H](CN(C)C(=O)C[C@@H]3N=C(c4ccc(Cl)cc4)c4c(sc(C)c4C)-n4c(C)nnc43)NC(=O)CNC2=O)cc1` [Compound 29] ({CH2CO}-[Tle][Hyp][dPhg(4-(4-Me-thiazol-5-yl))]G[dDap(Me)](JQ1acid)[dC]-NH2; thioether N-6) returned a DC50 of under 20000 nM. The molecule `Cc1ncsc1-c1ccc([C@@H]2NC(=O)[C@@H]3C[C@@H](O)CN3C(=O)[C@H](C(C)(C)C)NC(=O)CSC[C@H](C(N)=O)NC(=O)[C@@H](CNC(=O)C[C@@H]3N=C(c4ccc(Cl)cc4)c4c(sc(C)c4C)-n4c(C)nnc43)NC(=O)[C@@H](C)NC2=O)cc1` [Compound 31] ({CH2CO}-[Tle][Hyp][Phg(4-(4-Me-thiazol-5-yl))][dA][dDap](JQ1acid)[dC]-NH2; thioether N-6) registered a DC50 of over 20000 nM. The value for `Cc1ncsc1-c1ccc([C@H]2NC(=O)[C@@H]3C[C@@H](O)CN3C(=O)[C@H](C(C)(C)C)NC(=O)CCOCCNC(=O)[C@@H](CNC(=O)C[C@@H]3N=C(c4ccc(Cl)cc4)c4c(sc(C)c4C)-n4c(C)nnc43)NC(=O)CNC2=O)cc1` [Compound 32] (cyclo(G[dDap](JQ1acid)[PEG1][Tle][Hyp][dPhg(4-(4-Me-thiazol-5-yl))])) was over 20000 nM; that for `Cc1ncsc1-c1ccc([C@H]2NC(=O)[C@@H]3C[C@@H](O)CN3C(=O)[C@H](C(C)(C)C)NC(=O)CNC(=O)[C@H](C)NC(=O)[C@@H](CNC(=O)C[C@@H]3N=C(c4ccc(Cl)cc4)c4c(sc(C)c4C)-n4c(C)nnc43)NC(=O)CNC2=O)cc1` [Compound 33] (cyclo(AG[Tle][Hyp][dPhg(4-(4-Me-thiazol-5-yl))]G[dDap](JQ1acid))) was under 1000 nM. The same measure for `Cc1ncsc1-c1ccc([C@@H]2NC(=O)[C@@H]3C[C@@H](O)CN3C(=O)[C@H](C(C)(C)C)NC(=O)COCCNC(=O)[C@@H](CNC(=O)C[C@@H]3N=C(c4ccc(Cl)cc4)c4c(sc(C)c4C)-n4c(C)nnc43)NC(=O)[C@H](C)NC2=O)cc1` [Compound 35] (cyclo(A[dDap](JQ1acid)[AEA][Tle][Hyp][Phg(4-(4-Me-thiazol-5-yl))])): over 20000 nM. In the case of `Cc1ncsc1-c1ccc([C@H]2NC(=O)[C@@H]3C[C@@H](O)CN3C(=O)[C@H](C(C)(C)C)NC(=O)CNC(=O)C[C@@H](CCCCNC(=O)C[C@@H]3N=C(c4ccc(Cl)cc4)c4c(sc(C)c4C)-n4c(C)nnc43)NC(=O)CNC2=O)cc1` [Compound 36] (cyclo(G[Tle][Hyp][dPhg(4-(4-Me-thiazol-5-yl))]G[d(β3hK)](JQ1acid))), the DC50 was over 20000 nM. Molecule `Cc1ncsc1-c1ccc([C@@H]2NC(=O)[C@@H]3C[C@@H](O)CN3C(=O)[C@H](C(C)(C)C)NC(=O)CNC(=O)C[C@@H](CCCCNC(=O)C[C@@H]3N=C(c4ccc(Cl)cc4)c4c(sc(C)c4C)-n4c(C)nnc43)NC(=O)CNC2=O)cc1` [Compound 37] (cyclo(G[Tle][Hyp][Phg(4-(4-Me-thiazol-5-yl))]G[d(β3hK)](JQ1acid))) gave a DC50 of over 20000 nM. The same measure for `Cc1ncsc1-c1ccc([C@H]2NC(=O)[C@@H]3C[C@@H](O)CN3C(=O)[C@H](C(C)(C)C)NC(=O)CCCCCNC(=O)[C@@H](CNC(=O)C[C@@H]3N=C(c4ccc(Cl)cc4)c4c(sc(C)c4C)-n4c(C)nnc43)NC(=O)CNC2=O)cc1` [Compound 38] (cyclo([Ahx][Tle][Hyp][dPhg(4-(4-Me-thiazol-5-yl))]G[dDap](JQ1acid))): under 1000 nM. The molecule `Cc1ncsc1-c1ccc([C@@H]2NC(=O)[C@@H]3C[C@@H](O)CN3C(=O)[C@H](C(C)(C)C)NC(=O)CCCCCNC(=O)[C@@H](CNC(=O)C[C@@H]3N=C(c4ccc(Cl)cc4)c4c(sc(C)c4C)-n4c(C)nnc43)NC(=O)CNC2=O)cc1` [Compound 39] (cyclo([Ahx][Tle][Hyp][Phg(4-(4-Me-thiazol-5-yl))]G[dDap](JQ1acid))) yielded a DC50 of under 1000 nM.

With `Cc1sc2c(c1C)C(c1ccc(Cl)cc1)=N[C@@H](CC(=O)NC[C@H]1NC(=O)CNC(=O)[C@@H](Cc3ccc(-c4ccccc4)cc3)NC(=O)[C@@H]3C[C@@H](O)CN3C(=O)[C@H](C(C)(C)C)NC(=O)COCCNC1=O)c1nnc(C)n1-2` [Compound 40] (cyclo([AEA][Tle][Hyp][dBip]G[dDap](JQ1acid))), the DC50 was under 50 nM. The value for `Cc1sc2c(c1C)C(c1ccc(Cl)cc1)=N[C@@H](CC(=O)NC[C@H]1NC(=O)[C@@H](C)NC(=O)[C@@H](Cc3ccc(-c4ccccc4)cc3)NC(=O)[C@@H]3C[C@@H](O)CN3C(=O)[C@H](C(C)(C)C)NC(=O)COCCNC1=O)c1nnc(C)n1-2` [Compound 41] (cyclo([AEA][Tle][Hyp][dBip][dA][dDap](JQ1acid))) was under 50 nM; that for `Cc1sc2c(c1C)C(c1ccc(Cl)cc1)=N[C@@H](CC(=O)NC[C@H]1NC(=O)[C@@H](C(C)C)NC(=O)[C@@H](Cc3ccc(-c4ccccc4)cc3)NC(=O)[C@@H]3C[C@@H](O)CN3C(=O)[C@H](C(C)(C)C)NC(=O)COCCNC1=O)c1nnc(C)n1-2` [Compound 42] (cyclo([AEA][Tle][Hyp][dBip][dV][dDap](JQ1acid))) was under 50 nM; that for `Cc1sc2c(c1C)C(c1ccc(Cl)cc1)=N[C@@H](CC(=O)NC[C@H]1NC(=O)[C@@H](Cc3ccncc3)NC(=O)[C@@H](Cc3ccc(-c4ccccc4)cc3)NC(=O)[C@@H]3C[C@@H](O)CN3C(=O)[C@H](C(C)(C)C)NC(=O)COCCNC1=O)c1nnc(C)n1-2` [Compound 43] (cyclo([AEA][Tle][Hyp][dBip][d4Pal][dDap](JQ1acid))) was under 50 nM. The value for `Cc1sc2c(c1C)C(c1ccc(Cl)cc1)=N[C@@H](CC(=O)NC[C@H]1NC(=O)[C@@H](Cc3ccccc3)NC(=O)[C@@H](Cc3ccc(-c4ccccc4)cc3)NC(=O)[C@@H]3C[C@@H](O)CN3C(=O)[C@H](C(C)(C)C)NC(=O)COCCNC1=O)c1nnc(C)n1-2` [Compound 44] (cyclo([AEA][Tle][Hyp][dBip][dF][dDap](JQ1acid))) was under 50 nM. The value for `Cc1sc2c(c1C)C(c1ccc(Cl)cc1)=N[C@@H](CC(=O)NC[C@H]1NC(=O)[C@@H](Cc3ccc(-c4ccccc4)cc3)NC(=O)[C@@H](Cc3ccc(-c4ccccc4)cc3)NC(=O)[C@@H]3C[C@@H](O)CN3C(=O)[C@H](C(C)(C)C)NC(=O)COCCNC1=O)c1nnc(C)n1-2` [Compound 45] (cyclo([AEA][Tle][Hyp][dBip][dBip][dDap](JQ1acid))) was under 1000 nM.
